From the supplement of paper PMC10307832

Assays:
Assay in all cases: relative viability (nuclei count vs DMSO), 5 days (fraction); higher = more cells survive
[1] = compound: C1=CC=C2C(=C1)N=C(S2)C(C#N)C3=NC(=NC=C3)NCCC4=CN=CC=C4 + N=C(N)NC(=N)NCCc1ccccc1 [Phenformin] (partner 250 µM)
How it was run: (§1)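 For relative viability, nuclei counts in treated wells were divided by those in vehicle wells. Lung cancer cell lines had been pin-tool dosed in 1536-well plates the day after seeding and cultured for 5 days, then fixed and stained in one step (final 0.05% Triton X-100, 1% formaldehyde, 1 ug/ml Hoechst) and imaged at 4×. Doses were one drug alone or a fixed anchor-drug dose plus five library-drug doses (not always all listed) in √10 steps, and values are duplicate-plate medians.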

NVP-TAE684 + Bortezomib = compound: COc1cc(N2CCC(N3CCN(C)CC3)CC2)ccc1Nc1ncc(Cl)c(Nc2ccccc2S(=O)(=O)C(C)C)n1 [NVP-TAE684] + CC(C)C[C@H](NC(=O)[C@H](Cc1ccccc1)NC(=O)c1cnccn1)B(O)O [Bortezomib] (partner 0.002 µM)
How it was run: as §1

NVP-TAE684 + Crizotinib = compound: COc1cc(N2CCC(N3CCN(C)CC3)CC2)ccc1Nc1ncc(Cl)c(Nc2ccccc2S(=O)(=O)C(C)C)n1 [NVP-TAE684] + C[C@@H](Oc1cc(-c2cnn(C3CCNCC3)c2)cnc1N)c1c(Cl)ccc(F)c1Cl [Crizotinib] (partner 1 µM)
How it was run: as §1

NVP-TAE684 + Alpelisib = compound: COc1cc(N2CCC(N3CCN(C)CC3)CC2)ccc1Nc1ncc(Cl)c(Nc2ccccc2S(=O)(=O)C(C)C)n1 [NVP-TAE684] + Cc1nc(NC(=O)N2CCC[C@H]2C(N)=O)sc1-c1ccnc(C(C)(C)C(F)(F)F)c1 [Alpelisib] (partner 2 µM)
How it was run: as §1

Vandetanib + Bortezomib = compound: COc1cc2/c(=N/c3ccc(Br)cc3F)nc[nH]c2cc1OCC1CCN(C)CC1 [Vandetanib] + CC(C)C[C@H](NC(=O)[C@H](Cc1ccccc1)NC(=O)c1cnccn1)B(O)O [Bortezomib] (partner 0.002 µM)
How it was run: as §1

Cell Line	relative viability ([1]; first compound 0.005 µM)	relative viability ([1]; first compound 0.01581 µM)	relative viability ([1]; first compound 0.05 µM)	relative viability ([1]; first compound 0.1581 µM)	relative viability ([1]; first compound 0.5 µM)	relative viability (NVP-TAE684 + Bortezomib; first compound 0.2 µM)	relative viability (NVP-TAE684 + Bortezomib; first compound 0.6325 µM)	relative viability (NVP-TAE684 + Bortezomib; first compound 2 µM)	relative viability (NVP-TAE684 + Crizotinib; first compound 0.2 µM)	relative viability (NVP-TAE684 + Crizotinib; first compound 0.6325 µM)	relative viability (NVP-TAE684 + Crizotinib; first compound 2 µM)	relative viability (NVP-TAE684 + Alpelisib; first compound 0.2 µM)	relative viability (NVP-TAE684 + Alpelisib; first compound 0.6325 µM)	relative viability (NVP-TAE684 + Alpelisib; first compound 2 µM)	relative viability (Vandetanib + Bortezomib; first compound 0.02 µM)	relative viability (Vandetanib + Bortezomib; first compound 0.06325 µM)	relative viability (Vandetanib + Bortezomib; first compound 0.2 µM)	relative viability (Vandetanib + Bortezomib; first compound 0.6325 µM)	relative viability (Vandetanib + Bortezomib; first compound 2 µM)
LCLC-97TM1	0.429	0.417	0.403	0.431	0.407	0.711	0.216	0.194	0.216	0.336	0.0982	0.194	0.233	0.127	0.827	0.641	0.771	0.566	0.558
ABC-1	0.245	0.22	0.241	0.219	0.251	0.223	0.256	0.169	1.06	0.893	0.296	1.07	–	0.537	0.304	0.3	0.287	0.406	0.244
NCI-H596	0.557	0.848	0.687	0.921	0.801	1.3	0.919	–	0.974	0.886	0.717	0.526	0.517	0.375	0.998	1	0.965	0.717	0.958
NCI-H2228	0.19	0.281	0.299	0.316	0.314	0.633	0.33	0.214	0.476	0.42	0.139	0.381	0.255	0.153	0.775	0.942	–	1.03	0.814
PC-14	0.381	0.401	0.542	0.75	0.45	–	0.928	0.964	0.994	1.02	0.75	0.728	1.05	0.874	1.03	0.939	1.05	0.295	0.258
H3255	0.385	0.354	0.402	0.62	0.366	0.766	0.618	0.746	0.988	0.646	0.7	0.716	0.608	0.491	0.972	0.71	0.632	0.367	0.233
NCI-H441	–	0.993	1	0.913	0.79	0.516	0.358	0.204	0.661	0.659	0.315	0.835	0.965	0.503	0.449	0.459	0.373	0.547	0.386
SW 1573	0.251	0.395	–	0.484	0.382	1.02	–	0.927	0.971	0.805	0.673	0.574	0.827	0.592	1	0.817	1.16	1.01	0.879
LU99A	0.767	0.9	0.793	1.07	0.814	1.29	1.1	0.653	0.651	0.576	0.262	0.594	0.524	0.328	1.14	1.22	1.11	1.07	1.07
NCI-H322M	0.63	0.688	0.708	0.81	0.694	1.23	1.16	0.924	0.973	0.758	0.845	0.638	0.771	0.818	1.18	1.13	1.18	1.13	1.12
COR-L23	0.355	0.49	0.467	0.465	0.377	–	1.04	0.616	0.536	0.69	0.238	0.762	0.517	0.237	0.869	0.814	0.925	0.999	0.994
NCI-H1563	0.595	0.62	0.635	0.673	0.667	–	0.755	0.725	0.771	0.79	0.651	0.802	0.828	0.903	0.821	0.807	1.12	0.797	0.845
HARA	0.474	0.484	0.488	0.46	0.465	1.31	1.1	1.05	1.07	1.02	0.508	0.884	0.719	0.346	1.17	1.07	0.937	1.07	1.05
LXF-289	0.447	0.563	0.458	0.592	0.496	1.06	1.03	1.02	0.852	0.791	0.706	1.08	1.04	–	0.999	0.895	0.932	1.04	0.986
201T	0.415	0.425	0.423	0.504	0.346	1.11	1.01	1.11	0.972	1.01	0.889	0.976	1.05	0.839	1.03	1.08	1.13	1.03	1.06
LCLC-103H	0.289	0.336	0.286	0.369	0.298	1.09	1.11	–	1.16	1.08	1	0.99	0.986	0.995	1.09	0.966	1.05	1.05	0.924
NCI-H520	0.494	0.472	0.556	0.636	0.532	–	0.672	0.321	0.668	0.651	0.348	1.17	1.16	0.354	0.608	0.623	0.527	0.45	0.569
